According to ChEMBL document CHEMBL1149116, “2-Anilino-4-(thiazol-5-yl)pyrimidine CDK inhibitors: synthesis, SAR analysis, X-ray crystallography, and biological activity” (J Med Chem, 2004):

Legend:
[1] = target: Cyclin-dependent kinase 4 (Homo sapiens, UniProt P11802)
Description: Inhibitory activity against human CDK4 (Cyclin dependent kinase 4)

[2] = target: Cyclin-dependent kinase 2 (Homo sapiens, UniProt P24941)

Sequence of Cyclin-dependent kinase 4 (P11802 whole entry): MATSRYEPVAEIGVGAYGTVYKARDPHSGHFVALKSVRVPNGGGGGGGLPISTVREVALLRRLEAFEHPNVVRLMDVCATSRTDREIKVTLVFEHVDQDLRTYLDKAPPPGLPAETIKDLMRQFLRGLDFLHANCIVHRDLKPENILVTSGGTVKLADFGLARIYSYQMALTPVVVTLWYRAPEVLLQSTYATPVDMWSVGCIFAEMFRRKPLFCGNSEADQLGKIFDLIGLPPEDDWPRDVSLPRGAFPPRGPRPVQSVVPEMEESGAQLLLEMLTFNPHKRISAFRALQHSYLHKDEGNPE

Compound	Ki [1] [nM]	Ki [2] [nM]
Cc1nc(C)c(-c2ccnc(Nc3ccccc3)n2)s1	2600	80
CCNc1nc(C)c(-c2ccnc(Nc3cccc(O)c3)n2)s1	> 20000	> 10000
Cc1nc(C)c(-c2ccnc(Nc3ccccc3F)n2)s1	1200	1200
Cc1nc(C)c(-c2ccnc(N(C)c3cccc([N+](=O)[O-])c3)n2)s1	> 20000	> 20000
Cc1nc(-c2ccccn2)sc1-c1ccnc(Nc2cccc([N+](=O)[O-])c2)n1	> 20000	> 20000
Cc1nc(N)sc1-c1ccnc(Nc2ccc(O)cc2)n1	320	30
Cc1nc(C)c(-c2ccnc(Nc3cccc(F)c3)n2)s1	900	100
Cc1nc(C)c(-c2ccnc(N(C)C)n2)s1	> 20000	> 20000
Cc1nc(C)c(-c2ccnc(Nc3ccccc3Cl)n2)s1	> 20000	> 20000
CNc1nc(C)c(-c2ccnc(Nc3cccc(O)c3)n2)s1	370	110
Cc1nc(C)c(-c2ccnc(Nc3ccc(O)cc3)n2)s1	320	140
Cc1nc(C)c(-c2ccnc(Nc3cccc(Cl)c3)n2)s1	9400	670
Cc1nc(C)c(-c2ccnc(Nc3ccc(Cl)cc3)n2)s1	> 20000	2500
Cc1nc(N(C)C)sc1-c1ccnc(Nc2cccc([N+](=O)[O-])c2)n1	5300	60
CNc1nc(C)c(-c2ccnc(Nc3cccc([N+](=O)[O-])c3)n2)s1	1600	800
CNc1nccc(-c2sc(C)nc2C)n1	> 20000	> 20000
Cc1nc(C)c(-c2ccnc(Nc3cccc(C#N)c3)n2)s1	480	300
Cc1nc(C)c(-c2ccnc(Nc3cccc(C(F)(F)F)c3)n2)s1	> 20000	> 20000
Cc1nc(C)c(-c2ccnc(N)n2)s1	16000	–
Cc1nc(C)c(-c2ccnc(Nc3cccc(N)c3)n2)s1	10600	400
Cc1nc(C)c(-c2ccnc(Nc3ccc([N+](=O)[O-])cc3)n2)s1	> 20000	4100
Cc1nc(C)c(-c2ccnc(Nc3ccccc3C(F)(F)F)n2)s1	> 20000	> 20000
